Source: ChEMBL document CHEMBL1125394, “Analgesic dipeptide derivatives. 7. 3,7-Diamino-2-hydroxyheptanoic acid (DAHHA) containing dipeptide analogues of the analgesic compound H-Lys-Trp(Nps)-OMe” (J Med Chem, 1992)
Residues, ends and D or L forms follow the SMILES beside them.

Key:
Aminopeptidase N [1] = molecular target: T1, Aminopeptidase N (Rattus norvegicus, UniProt P15684); assay: (§1) Compound was evaluated for its inhibitory potency against purified membrane bound rat brain Aminopeptidase M using [3H]Leu-enkephalin as substrate; type: functional
T1 sequence (P15684 whole entry): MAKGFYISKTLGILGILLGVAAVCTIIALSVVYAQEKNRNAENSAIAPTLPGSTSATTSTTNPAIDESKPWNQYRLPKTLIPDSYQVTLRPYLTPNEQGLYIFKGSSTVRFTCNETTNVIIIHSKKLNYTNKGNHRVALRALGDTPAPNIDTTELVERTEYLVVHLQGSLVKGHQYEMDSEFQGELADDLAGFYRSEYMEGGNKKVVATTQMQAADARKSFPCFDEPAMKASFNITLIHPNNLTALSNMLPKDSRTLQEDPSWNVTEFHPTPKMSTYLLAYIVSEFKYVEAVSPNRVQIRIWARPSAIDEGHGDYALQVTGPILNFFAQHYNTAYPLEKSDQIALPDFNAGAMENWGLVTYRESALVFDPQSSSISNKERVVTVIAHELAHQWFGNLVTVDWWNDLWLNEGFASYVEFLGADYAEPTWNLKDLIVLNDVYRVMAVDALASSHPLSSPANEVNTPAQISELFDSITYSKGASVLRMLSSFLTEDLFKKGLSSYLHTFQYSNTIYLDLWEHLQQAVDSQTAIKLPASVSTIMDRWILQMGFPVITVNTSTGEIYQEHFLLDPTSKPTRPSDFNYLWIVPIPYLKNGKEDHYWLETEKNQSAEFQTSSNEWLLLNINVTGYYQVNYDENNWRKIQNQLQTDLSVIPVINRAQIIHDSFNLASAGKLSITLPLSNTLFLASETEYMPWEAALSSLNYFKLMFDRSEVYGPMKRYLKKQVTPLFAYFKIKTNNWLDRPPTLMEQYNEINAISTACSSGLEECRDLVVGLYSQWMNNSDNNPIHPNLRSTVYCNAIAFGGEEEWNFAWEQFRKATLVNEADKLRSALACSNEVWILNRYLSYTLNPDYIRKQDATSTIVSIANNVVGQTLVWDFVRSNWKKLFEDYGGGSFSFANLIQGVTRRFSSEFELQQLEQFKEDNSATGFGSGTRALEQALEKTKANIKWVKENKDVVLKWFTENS

Mus musculus [2] = organism: Mus musculus; assay: Analgesic response measured as percentage change in reaction time (dose 1 ug given intracervically) after 30 min in mice; type: functional
Mus musculus [3] = organism: Mus musculus; assay: Analgesic response measured as percentage change in reaction time (dose 1 ug given intracervically) after 5 min in mice; type: functional
Mus musculus [4] = organism: Mus musculus; assay: Analgesic response measured as percentage change in reaction time (dose 1 ug given intracervically) after 60 min in mice; type: functional
Mus musculus [5] = organism: Mus musculus; assay: Analgesic response measured as percentage change in reaction time (dose 0.5 ug given intracervically) after 30 min in mice; type: functional
Mus musculus [6] = organism: Mus musculus; assay: Analgesic response measured as percentage change in reaction time (dose 0.5 ug given intracervically) after 5 min in mice; type: functional
Mus musculus [7] = organism: Mus musculus; assay: Analgesic response measured as percentage change in reaction time (dose 0.5 ug given intracervically) after 60 min in mice; type: functional
[8] = (§2) Compound was evaluated for its inhibitory potency against purified membrane bound rat brain APs; type: functional
Aminopeptidase B [9] = molecular target: T2, Aminopeptidase B (Rattus norvegicus, UniProt O09175); assay: (§3) Compound was evaluated for its inhibitory potency against purified membrane bound rat brain Aminopeptidase B using L-lysine-beta napthylamide as substrate; type: functional
T2 sequence (O09175 whole entry): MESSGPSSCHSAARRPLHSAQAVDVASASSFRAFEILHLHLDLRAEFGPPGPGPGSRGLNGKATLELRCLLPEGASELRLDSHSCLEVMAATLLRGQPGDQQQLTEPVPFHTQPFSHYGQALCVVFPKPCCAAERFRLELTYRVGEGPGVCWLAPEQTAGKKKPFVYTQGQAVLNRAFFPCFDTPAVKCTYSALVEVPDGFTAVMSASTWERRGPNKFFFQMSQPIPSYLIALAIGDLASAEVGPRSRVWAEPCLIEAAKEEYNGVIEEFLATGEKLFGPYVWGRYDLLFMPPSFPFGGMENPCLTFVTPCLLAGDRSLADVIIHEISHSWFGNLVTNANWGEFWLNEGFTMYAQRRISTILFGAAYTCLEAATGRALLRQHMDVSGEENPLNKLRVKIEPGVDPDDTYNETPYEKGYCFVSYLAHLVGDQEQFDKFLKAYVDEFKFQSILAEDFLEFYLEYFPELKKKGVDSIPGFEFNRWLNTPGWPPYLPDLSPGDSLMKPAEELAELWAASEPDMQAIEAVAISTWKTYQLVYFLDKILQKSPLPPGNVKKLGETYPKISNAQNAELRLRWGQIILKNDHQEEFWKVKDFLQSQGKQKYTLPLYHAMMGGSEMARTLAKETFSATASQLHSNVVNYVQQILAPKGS

Mus musculus [10] = organism: Mus musculus; assay: Analgesic response measured as percentage change in reaction time (dose 5 ug given intracervically) after 30 min in mice; type: functional
Mus musculus [11] = organism: Mus musculus; assay: Analgesic response measured as percentage change in reaction time (dose 5 ug given intracervically) after 5 min in mice; type: functional
Mus musculus [12] = organism: Mus musculus; assay: Analgesic response measured as percentage change in reaction time (dose 5 ug given intracervically) after 60 min in mice; type: functional
Aminopeptidase B [13] = molecular target: T2, Aminopeptidase B; assay: Compound was evaluated for its inhibitory potency against purified membrane bound rat brain Aminopeptidase B (AP-B) using L-lysine-beta napthylamide as substrate
Aminopeptidase N [14] = molecular target: T1, Aminopeptidase N; assay: Compound was evaluated for its inhibitory potency against purified membrane bound rat brain Aminopeptidase M (AP-M) using [3H]Leu-enkephalin as substrate
Aminopeptidase B [15] = molecular target: T2, Aminopeptidase B; assay: as §3
Aminopeptidase N [16] = molecular target: T1, Aminopeptidase N; assay: as §1
Mus musculus [17] = organism: Mus musculus; assay: Analgesic response measured as percentage change in reaction time (dose given intracervically) after 60 min in mice; type: functional
[18] = as §2; type: tissue-based
Mus musculus [19] = organism: Mus musculus; assay: Analgesic response measured as percentage change in reaction time (dose 25 ug given intracervically) after 30 min in mice; type: functional
Mus musculus [20] = organism: Mus musculus; assay: Analgesic response measured as percentage change in reaction time (dose 25 ug given intracervically) after 5 min in mice; type: functional
Mus musculus [21] = organism: Mus musculus; assay: Analgesic response measured as percentage change in reaction time (dose 25 ug given intracervically) after 60 min in mice; type: functional
Mus musculus [22] = organism: Mus musculus; assay: Analgesic response measured as percentage change in reaction time (dose 100 ug given intracervically) after 30 min in mice; type: functional
Mus musculus [23] = organism: Mus musculus; assay: Analgesic response measured as percentage change in reaction time (dose 100 ug given intracervically) after 5 min in mice; type: functional
Mus musculus [24] = organism: Mus musculus; assay: Analgesic response measured as percentage change in reaction time (dose 100 ug given intracervically) after 60 min in mice; type: functional
Aminopeptidase B [25] = molecular target: T2, Aminopeptidase B; assay: Inhibitory potency against purified membrane bound rat brain Aminopeptidase B (AP-B) using L-lysine-beta napthylamide as substrate
Aminopeptidase N [26] = molecular target: T1, Aminopeptidase N; assay: Inhibitory potency against purified membrane bound rat brain Aminopeptidase M (AP-M) using [3H]Leu-enkephalin as substrate
Mus musculus [27] = organism: Mus musculus; assay: Analgesic response measured as percentage change in reaction time ((dose 1 ug given intracervically) after 60 min in mice; type: functional
Mus musculus [28] = organism: Mus musculus; assay: Analgesic response measured as percentage change in reaction time (dose 10 ug given intracervically) after 30 min in mice; Signs of strong neurotoxicity; type: functional, organism-based
Mus musculus [29] = organism: Mus musculus; assay: Analgesic response measured as percentage change in reaction time (dose 10 ug given intracervically) after 60 min in mice; Signs of strong neurotoxicity; type: functional, organism-based
Mus musculus [30] = organism: Mus musculus; assay: Analgesic response measured as percentage change in reaction time (dose 10 ug given intracervically) after 5 min in mice; type: functional
Aminopeptidase B [31] = molecular target: T2, Aminopeptidase B; assay: Inhibitory potency against purified membrane bound rat brain Aminopeptidase B using L-lysine-beta napthylamide as substrate; type: functional
Aminopeptidase N [32] = molecular target: T1, Aminopeptidase N; assay: Inhibitory potency against purified membrane bound rat brain Aminopeptidase M using [3H]Leu-enkephalin as substrate; type: functional

Compound | IC50 (Aminopeptidase N [1]) | Change (Mus musculus [2]) | Change (Mus musculus [3]) | IC50 (Aminopeptidase B [9]) | Change (Mus musculus [10]) | Change (Mus musculus [11]) | Change (Mus musculus [12]) | IC50 (Aminopeptidase B [13]) | IC50 (Aminopeptidase N [14]) | other results
COC(=O)[C@H](Cc1c(Sc2ccccc2[N+](=O)[O-])[nH]c2ccccc12)NC(=O)[C@@H](N)CCCCN | 261 µM | <60% | <130% | 400 µM | – | – | – | – | – | Change (Mus musculus [4]): 35%; Change (Mus musculus [5]): <40%; Change (Mus musculus [6]): <80%; Change (Mus musculus [7]): 20%; IC50 [8]: 18 µM
COC(=O)[C@@H](Cc1c[nH]c2ccccc12)NC(=O)[C@H](O)[C@@H](N)CCCCN | > 1000 µM | – | – | > 1000 µM | -1% | 22% | 2% | – | – | –
NCCCC[C@H](N)C(=O)N[C@@H](Cc1c[nH]c2ccccc12)C(=O)O (H-Lys-Trp-OH) | – | – | – | – | – | – | – | > 1000 µM | > 1000 µM | –
COC(=O)[C@H](CC(C)C)NC(=O)[C@@H](O)[C@@H](N)CCCCN.COC(=O)[C@H](CC(C)C)NC(=O)[C@H](O)[C@@H](N)CCCCN | – | – | – | – | 10% | -1% | 15% | 500 µM | > 1000 µM | –
COC(=O)[C@H](CC(C)C)NC(=O)[C@@H](O)[C@H](N)CCCCN | – | – | – | – | 21% | <62% | 23% | – | – | IC50 (Aminopeptidase B [15]): 481 µM; IC50 (Aminopeptidase N [16]): 201 µM
COC(=O)[C@@H](Cc1c(Sc2ccccc2[N+](=O)[O-])[nH]c2ccccc12)NC(=O)C(O)[C@H](N)CCCCN (some centres undefined) | – | 13% | 19% | – | 56% | 80% | 37% | 486 µM | 91.2 µM | Change (Mus musculus [4]): -2%
COC(=O)[C@H](Cc1c[nH]c2ccccc12)NC(=O)[C@H](O)[C@H](N)CCCCN | 502 µM | – | – | > 1000 µM | – | – | – | – | – | IC50 [8]: 45.5 µM
COC(=O)[C@@H](Cc1c[nH]c2ccccc12)NC(=O)[C@@H](O)[C@@H](N)CCCCN | > 1000 µM | – | – | > 1000 µM | 10% | -1% | 15% | – | – | –
COC(=O)[C@H](Cc1c[nH]c2ccccc12)NC(=O)[C@@H](O)[C@H](N)CCCCN.Cl.Cl | 10.2 µM | – | – | > 1000 µM | 17% | <60% | – | – | – | Change (Mus musculus [17]): 14%; IC50 [8]: 0.21 µM
CC(C)C[C@H](NC(=O)[C@@H](O)[C@H](N)Cc1ccccc1)C(=O)O [UBENIMEX] | – | – | – | – | – | – | – | – | – | IC50 [18]: 0.3 µM; IC50 (Aminopeptidase B [15]): 6 µM; IC50 (Aminopeptidase N [16]): 19.4 µM; Change (Mus musculus [19]): 3%; Change (Mus musculus [20]): 26%; Change (Mus musculus [21]): -3%; Change (Mus musculus [22]): 41%; Change (Mus musculus [23]): 11%; Change (Mus musculus [24]): 59%
COC(=O)[C@H](Cc1c(Sc2ccccc2[N+](=O)[O-])[nH]c2ccccc12)NC(=O)C(O)[C@@H](N)CCCCN (some centres undefined) | – | 15% | 25% | – | 64% | 75% | 43% | – | – | IC50 (Aminopeptidase B [25]): 583 µM; IC50 (Aminopeptidase N [26]): 852 µM; Change (Mus musculus [4]): -8%
COC(=O)[C@H](Cc1c(Sc2ccccc2[N+](=O)[O-])[nH]c2ccccc12)NC(=O)[C@@H](O)[C@H](N)CCCCN | – | 63% | 124% | – | 80% | 146% | 74% | 101 µM | 7 µM | Change (Mus musculus [27]): 47%; Change (Mus musculus [28]): Signs of strong neurotoxicity; Change (Mus musculus [29]): Signs of strong neurotoxicity; Change (Mus musculus [30]): 243%
COC(=O)[C@@H](Cc1c(Sc2ccccc2[N+](=O)[O-])[nH]c2ccccc12)NC(=O)[C@H](O)[C@@H](N)CCCCN | – | 21% | 19% | – | 75% | 59% | 55% | 982 µM | 225 µM | Change (Mus musculus [4]): -1%
COC(=O)[C@@H](Cc1c[nH]c2ccccc12)NC(=O)[C@@H](O)[C@H](N)CCCCN.COC(=O)[C@@H](Cc1c[nH]c2ccccc12)NC(=O)[C@H](O)[C@H](N)CCCCN | – | – | – | – | 1% | 10% | 5% | – | – | IC50 (Aminopeptidase B [31]): > 1000 µM; IC50 (Aminopeptidase N [32]): 826 µM
COC(=O)[C@H](Cc1c[nH]c2ccccc12)NC(=O)[C@@H](O)[C@@H](N)CCCCN.COC(=O)[C@H](Cc1c[nH]c2ccccc12)NC(=O)[C@H](O)[C@@H](N)CCCCN | > 1000 µM | – | – | 500 µM | 19% | 26% | -4% | – | – | –
